Assays:
Assay type in all cases: in vivo
[1] = test system: Early Blight (Alternaria solani); assay: Evaluation of fungicide in the treatment of Early Blight on tomatoes; details: inoculated tomato plants; Chlorothalonil 2.5 pt/ac, no adjuvant; rated after one week
Description: This example evaluated the effectiveness of the fungicide chlorothalonil for the control of Early Blight on tomatoes. The fungicide was mixed with water in a spray tank at the listed rate treatment (A), or with a permeabilizer (B) and the degree of control of the Early Blight was evaluated. The tomato plants were inoculated with the fungi. The ratings were made after one week on the per cent leaves infected with Alternaria and also the number with severe damage—necrosis.

[2] = test system: Bacterial Leaf Spot (Xanthomonas campestris); assay: Effectiveness of a bactericide on bacterial leaf spot on tomatoes; details: inoculated tomato plants; Copper 2#/acre, no adjuvant; rated after two weeks
Description: This example evaluated the effectiveness of the bactericide copper hydroxide for the control of bacterial leaf spot on tomatoes. The tomato plants were inoculated with the bacteria. The bactericide was mixed with water in a spray tank at the listed rate treatment (A), or with a permeabilizer (B) and the degree of control of the leaf spot was evaluated. The ratings were made after two weeks on the per cent leaves infected.

[3] = test system: fireblight on Southern Crepe Myrtle; assay: Effectiveness of bactericide streptomycin at controlling fireblight; details: infected plants sprayed until wet; rated after two days; adjuvant (B) at 500:1 dilution
Description: This example evaluated the effectiveness of the bactericide streptomycin for the control of fireblight on Southern Crepe Myrtle. The bactericide was mixed with water in a spray tank at the listed rate treatment (A), or with a permeabilizer (B). The infected plants were treated with the bactericide by spraying until wet and the degree of control of the fireblight was evaluated. The ratings were made after two days on the rate required for control.

`N#Cc1c(Cl)c(Cl)c(Cl)c(C#N)c1Cl` [Chlorothalonil, chlorothalonil] was tested, and the “Infected Leaflets” value [1] was 60%, the “Infected Leaves” value [1] was 42% and the “Leaves with >50% Necrosis” value [1] was 42%.

For `[Cu+2].[OH-].[OH-]` [Copper, copper hydroxide], the “% Leaves Infected” value [2] was 63%.

For `[H]/N=C(/N)N[C@H]1[C@H](O)[C@@H](O)[C@H](O[C@@H]2O[C@@H](C)[C@](O)(C=O)[C@H]2O[C@@H]2O[C@@H](CO)[C@H](O)[C@@H](O)[C@@H]2NC)[C@@H](N/C(N)=N\[H])[C@@H]1O` [Streptomycin, streptomycin], the “Level of Control (rate required for control)” value [3] was 60 ppm.

— patent publication US9113625B2, “Adjuvant for agricultural chemicals” (CJB Industries, Inc., priority 2009, dated 2015)
